The values below come from ChEMBL document CHEMBL1122170, “Angiotensin converting enzyme inhibitors: modifications of a tripeptide analogue” (J Med Chem, 1982).

Broadly, the IC50 is the concentration that inhibits the measured activity by half.

This assay concerns the target Angiotensin-converting enzyme (Cavia porcellus). Put plainly: Concentration required for 50% inhibition of Angiotensin I converting enzyme.
`O=C(NC(Cc1ccccc1)C(=O)CSCC(=O)N1CCC[C@@H]1C(=O)O)c1ccccc1` (stereo not given in full) registered an IC50 of 12 nM.

As to `O=C(NC(Cc1ccccc1)C(=O)CNCC(=O)N1CCC[C@@H]1C(=O)O)c1ccccc1` (stereo not given in full), the concentration for half-maximal inhibition (IC50) was 960 nM. In turn, `Cc1ccc(S(=O)(=O)N(CC(=O)C(Cc2ccccc2)NC(=O)c2ccccc2)CC(=O)N2CCC[C@@H]2C(=O)O)cc1` (stereo not given in full) displayed an IC50 of 22000 nM. `O=C(NC(Cc1ccccc1)C(=O)COCC(=O)N1CCC[C@@H]1C(=O)O)c1ccccc1` (stereo not given in full) yielded an IC50 of 4.4 nM. As for `O=C(NC(Cc1ccccc1)C(=O)CCCC(=O)N1CCC[C@@H]1C(=O)O)c1ccccc1` (stereo not given in full), the figure is 42 nM.
